Measurements from patent US20170304396A1, “AQUEOUS SOLUTION FORMULATIONS OF VANCOMYCIN” (priority 2015, published 2017).
Values after ≈ are worked out from the molar mass of the structure shown. Structures can show the parent of a compound that is named as a salt.

How the values were obtained:
[1] = assay type: physicochemical
Method: The aim of this study was to compare effects of various ingredients on vancomycin stability in a solution in order to identify a stabilizer that can slow the degradation of vancomycin in solution. Each solution sample (coded with an F-#) was prepared by dissolving vancomycin HCl to 1% concentration, along with stabilizer added at the concentrations listed in the Table below. Each solution was adjusted to about pH 4.7 and stored at 2-8° C. and 50° C. for 2 days. The stability of vancomycin was indicated by vancomycin recovery (% over the initial concentration) after storage at a selected temperature. The concentration of vancomycin or vancomycin assay was measured using HPLC method (USP Vancomycin Assay method). The relative stability of vancomycin in each solution was expressed in vancomycin concentration or assay recovery (% over the initial concentration).
The aim of this study was to compare various amino acids, including tryptophan, on their effects on vancomycin stability in an aqueous solution. The solution samples were prepared and tested similarly to Example 2.
The solution samples were prepared and tested in a similar way as in Example 2. The test sample compositions and test results are shown in the Table below and the effects of tryptophan concentration on vancomycin stability are depicted graphically in FIG. 4.

[2] = physchem
Text: As used herein, “molecular complex” means a special interaction between two molecules that are not covalently bonded. […] One of the methods to detect molecular complex formation is the phase solubility diagram which measures changes in solubility of one molecule (“substrate”) as a function of the other molecule (“complexing agent”) (T. Higuchi and J. L. Lach, J. Am. Pharm. Assoc., Sci. Ed. 43, 349, 525, 527, 1954).
In addition, this study intended to determine the stoichiometric ratio of such molecular complex formed. To obtain a phase solubility diagram of tryptophan, pre-calculated amounts of tryptophan, vancomycin and water were added into a plastic tube to form a suspension in which vancomycin was completed dissolved but tryptophan was not completed dissolved, the suspension was adjusted to pH 6.2, mixed at room temperature (RT) overnight to reach dissolution/re-crystallization equilibrium, and then filtered through a 0.2-micorn filter membrane. The filtrate was diluted and analyzed by HPLC (using the USP HPLC vancomycin assay method) to determine the concentrations of tryptophan and vancomycin. The solubility of tryptophan measured and the concentration of vancomycin added measured in each suspension sample are provided in the Table below: […]

[3] = Solubility in water; assay type: physicochemical; details: for solubility: water
[4] = system: E. faecalis ATCC 29212; assay: Minimum Inhibitory Concentration (CLSI); assay type: cell-based; details: Example 11
Text: (§1) Standards for this method are outlined by the Clinical and Laboratory Standards Institute (CLSI). The table below describes the vancomycin solution composition used to test antibiotic potency:
(§2) Standards for this method are outlined by the Clinical and Laboratory Standards Institute (CLSI).

[5] = system: S. aureus ATCC 25923; assay: Minimum Inhibitory Concentration (CLSI); assay type: cell-based; details: Example 11
Text: as §1, §2

[6] = Merck Index (12th edition); cited from earlier work

In the case of CC(=O)N[C@@H](Cc1c[nH]c2ccccc12)C(=O)O [N-acetyl-tryptophan], the “effect of additive on vancomycin stability in solution” value [1] is reported as “capable of slowing down the degradation of vancomycin in solution”.
With N[C@@H](Cc1c[nH]c2ccccc12)C(=O)O [tryptophan] the “effect of additive on vancomycin stability in solution” value [1] was “capable of slowing down the degradation of vancomycin in solution”, the “effect of amino acid on vancomycin stability in solution” value [1] was “capable of slowing down the degradation of vancomycin” and the “effect of tryptophan concentration on vancomycin stability in solution” value [1] was “improves vancomycin stability in a concentration-dependent fashion”. The tryptophan solubility ([2]; pH 6.2) was 2.2%, the “tryptophan solubility (estimated)” value ([2]; pH 6.2) was ~2.5% and the solubility ([2]; pH 6.2, aqueous buffer, thermodynamic from solid) was ~70 mM (≈ 14.3 mg/mL). The solubility ([3]; without vancomycin, read-out: tryptophan solubility in water) was ~14 mg/mL (≈ 68.6 mM), the “effect of addition of tryptophan on the MIC of vancomycin” value [4] was “does not affect the MIC of vancomycin” and the “effect of addition of tryptophan on the MIC of vancomycin” value [5] was “does not affect the MIC of vancomycin”.
For CN[C@H](CC(C)C)C(=O)N[C@H]1C(=O)N[C@@H](CC(N)=O)C(=O)N[C@H]2C(=O)N[C@H]3C(=O)N[C@H](C(=O)N[C@H](C(=O)O)c4cc(O)cc(O)c4-c4cc3ccc4O)[C@H](O)c3ccc(c(Cl)c3)Oc3cc2cc(c3O[C@@H]2O[C@H](CO)[C@@H](O)[C@H](O)[C@H]2O[C@H]2C[C@](C)(N)[C@H](O)[C@H](C)O2)Oc2ccc(cc2Cl)[C@H]1O [vancomycin hydrochloride], the “solubility of vancomycin hydrochloride in water” value [6] is given as > 10 % w/v.
With CN[C@H](CC(C)C)C(=O)N[C@H]1C(=O)N[C@@H](CC(N)=O)C(=O)N[C@H]2C(=O)N[C@H]3C(=O)N[C@H](C(=O)N[C@H](C(=O)O)c4cc(O)cc(O)c4-c4cc3ccc4O)[C@H](O)c3ccc(c(Cl)c3)Oc3cc2cc(c3O[C@@H]2O[C@H](CO)[C@@H](O)[C@H](O)[C@H]2O[C@H]2C[C@](C)(N)[C@H](O)[C@H](C)O2)Oc2ccc(cc2Cl)[C@H]1O [vancomycin] the “vancomycin solubility limit in water” value [3] was “about 12 % w/v” and the solubility ([3]; read-out: vancomycin solubility limit in water) was ~120 mg/mL (≈ 82.8 mM).
